Results on 5 compounds are retold here after US8603999B2, “Amphiphile prodrugs” (Commonwealth Scientific and Industrial Research Organisation, priority 2008, dated 2013).

Series [1] has as its system Carboxylesterase from porcine liver. Briefly: Hydrolysis of prodrugs by porcine liver carboxylesterase (CES), LC/MS. How it is done: High purity Capecitabine (as solid crystals) was purchased from Xingcheng Chemphar Co., Ltd, P.R.China. […] Millipore water was used to prepare the prodrugs solutions with appropriate concentrations, while phosphate buffered saline (pH 7.4, PBS) was used in the preparation of different concentrations of enzyme.
Stock solution of Capecitabine was prepared by dissolving pure white Capecitabine into warm water. 1 mg/mL of Capecitabine solution was then further obtained by diluting the stock solution with milli-Q water. […] Prior to the experiments, prodrug particles were incubated at 37° C. for at least two weeks to achieve the equilibrium state of certain phases.
Stock solution of 10 mg/mL carboxylesterase solution was prepared by weighting 10 mg of powder enzyme in 1 mL of PBS buffer and shaking gently by hand. The concentration of the enzyme solution was adjusted to 1 mg/mL and 0.01 mg/mL by dilution of the stock solution. These solutions were used for the enzymatic hydrolysis of the prodrugs and Capecitabine respectively. […]
To measure the rate of the enzymatic reaction precisely, the starting substrate and the enzyme solution were mixed for a defined time by rapidly mixing together the two stock solutions and shaking. The time at which enzyme solution was added was taken as time zero for the hydrolysis reaction. The mixture was maintained at 37° C. throughout the experiment. The concentration of the hydrolysis product was then measured at various times using LC/MS (Finnigan LCQ Series, Thermo Scientific, USA). The time at which the sample was injected into the LC column was taken to be the reaction time for such sample. The hydrolysis progress curve showing the decrease in the concentration of original substrate was subsequently plotted.
The concentrations of prodrugs were determined using Thermo Finnigan LC/MS equipped with an atmospheric pressure chemical ionization (APCI) probe in positive ion mode. 10 μL of sample withdrawn from the reaction solution was injected directly into a Platinum EPS C18 100 Å 5u LC column with the length of 150 mm and internal diameter of 4.6 mm (Alltech, Australia). A mixture of 30% LCMS grade water and 70% Methanol was employed as mobile phase with the flow rate of 1 ml/min. The sample after the column separation was eluted to APCI source (MS full positive scan) to determine the molecular weight of the substrates. The vaporizer temperature of the APCI probe was set at 450° C. and the capillary temperature was operated at 200° C. The sample temperature was well maintained at 37° C. during the entire measurement by incubating the sample in the temperature controlled auto-sampler. Data were acquired and processed with Xcalibur Quan chromatography software.
The decreased concentration of substrate and the increased hydrolysis product 5′-dFCyd were detected based on the different retention time on chromatogram and m/z value in the MS positive scan. […] The decreased/increased ratio of reactant/5′dFCyd was determined by comparing the integration areas of the corresponding peaks.
The enzyme hydrolysis reaction was plotted as the logarithm of the ratio of original prodrug concentration to the decreased concentration of prodrug at a certain incubation time as a function of reaction time (Ln [S]0/[S] vs T).
In order to compare the enzymatic activity for each individual substrate to CES, we calculate a global reaction rate expressed as a specific activity (SA) (μmol/min/mg enzyme): SA=Δ[S]/(Δt·[CCES])
Here, as is common when discussing the SA, [CCES] is the enzyme concentration in mg/ml, Δ[S] is the substrate concentration change in μmol/ml during Δt time.

Series [2] is described as follows: Thermal decomposition by TGA. The conditions noted are these: neat prodrug. It counts as physicochemical.
The nature of series [3]: Lyotropic phase behaviour: water penetration scans, SAXS and XRD. The class given is physicochemical. The following applies: for lyotropic phase behaviour in water penetration scans: concentration gradient from neat amphiphile to pure water, heated from room temperature; for d-spacing: RT, Lc; for Lyotropic phase behaviour: particle form in water at physiological temperature. From the text: Lyotropic mesophase behaviour was studied using water penetration experiments. Neat amphiphile was placed on a glass slide, melted and cooled to facilitate sample homogenization and then covered with a glass cover slip. A few drops of Milli-Q water were then introduced to the edge of the cover slip which was drawn in by capillary action resulting in a concentration gradient from pure amphiphile in the centre to pure water around the edges of the cover slip. The generated mesophases were identified by their characteristic birefringent textures. Samples were then heated at 2° C./min from room temperature to ˜99° C. using an FP90 Linkam hotstage (Linkam Scientific Instruments, England). Thermotropic phase behaviour was also examined in the similar method but in the absence of water. The phases were viewed using an Olympus GX51 inverted polarising microscope (Olympus Australia Pty. Ltd, Australia) equipped with an Olympus C-5060 digital camera for image capture. All images were taken with 100× magnification unless elsewhere stated. […] The bulk phase of the binary amphiphile/water system was prepared by weighing the appropriate amount of sample and water in a sample vial. For those samples requiring pre-treatment, the samples were quickly melted in a pre-heated temperature controlled silicon-oil heating bath prior to addition of water. […] The prepared samples were analysed using an Anton-Paar SAXSess (Graz, Austria) with PANalytical PW3830 stand-alone X-ray generator operating at 40 kv, 50 mA with a sealed-tube Cu anode (λCu—Kα=0.154 nm). The samples were loaded into a paste cell sample holder at room temperature. […] Temperature control was via a TCU Temperature Control Unit (Anton Paar). […] The scattering results were recorded and analysed by the accompanied Anton Paar software.

Series [4] can be described thus: Particle size distribution of dispersions by dynamic light scattering. The class given is physicochemical. The following applies: for Average Particle size: dispersions used in the hydrolysis study, physiological temperature. How it is done: BASF) equivalent to 10% (w/w) of neat amphiphile and absolute ethanol were weighed in a sample vial. […] These crude dispersions were then passed through a series of PC membranes from the size range from 1 um to 100 nm to obtain a more uniform size distribution for the particles. The equipment used for size control is a mini-extruder (Avanti Polar Lipids, USA). […] The final concentration of colloidosomes were determined by ultra performance liquid chromatography (UPLC) and then diluted to 1 mg/mL for use in the enzyme hydrolysis study The particle size distribution and morphology of the above suspensions were determined using the method as described herein by using zetasizer and cryo-TEM characterisation methods. Solid lipid particles of prodrug 5-FCPal were prepared using mechanical methods. […] The melted prodrug and poloxamer mixture was then transferred to 40 mL of pre-warmed water upon vigorous vortexing. The mixture was then sheared with a rough homogenizer (Ultra Turrax®, T18 Basic, IKA® Werke GmbH & Co. KG, Germany) at 14,000 rpm for 10 min. The resultant dispersion was further transferred to the ultrasonic benchtop cleaner for a few hours of ultra sonication. […] Determination of the particle size distribution of the colloidosome and solid lipid particle dispersions were carried out using a Zetasizer (nano zs, Malvern, England) equipped with a He—Ne Laser (4 mw, 633 nm) and an avalanche photodiode detector. […] […] The size distribution was recorded by intensity.

In series [5] the test system is 4T1 tumour. Briefly: Second 4T1 tumour study, daily dosing for 17 days (Example 7). The source says: Also, the dosage of both compounds was increased to 1.5 mmol for each treatment.
Setting [6] is: porcine liver CES, 37° C., enzyme 0.5 mg/mL for prodrugs, 0.005 mg/ml for Capecitabine.
The mark [7] stands for this setting: porcine liver CES, 37° C., enzyme 0.5 mg/mL for prodrugs.
The mark [8] stands for this setting: DLS at 25° C., 5-FCPhy and 5-FCOle after membrane extrusion, 5-FCPal solid lipid particles.
[9] abbreviates: in excess water with 2.3% F127 and 4.87% Ethanol, SAXS, 37° C.
The mark [10] stands for this setting: in excess water, RT (25° C.), SAXS.

With `CCCCCOC(=O)Nc1nc(=O)n([C@@H]2O[C@H](C)[C@@H](O)[C@H]2O)cc1F` [Capecitabine, reference compound], the “time to hydrolysis to 5-FC” value in series [1] (5 mg/ml and 0.5 mg/ml enzyme concentration) was at most 30 min. For the same compound, the “enzyme activities (SA)” value in series [1] (obtained from three enzymatic concentrations) is reported as 600-900 μmol/min/mg enzyme. In series [1] (setting [6]), the Specific Activity (SA) at time t = 0.5 h turned out to be 933 µmol/min/mg, the Specific Activity (SA) at time t = 1 h came out at 733 µmol/min/mg, the Specific Activity (SA) at time t = 2 h stood at 717 µmol/min/mg and the Specific Activity (SA) at time t = 6 h is 598 µmol/min/mg.
For the compound `CCCCCCCCCCCCCCCCOC(=O)Nc1nc(=O)n([C@@H]2O[C@H](C)[C@@H](O)[C@H]2O)cc1F` [Prodrug 5-FCPal, 5′-deoxy-5-fluoro-N^4-(hexadecyl-1-oxycarbonyl)cytidine], the “temperature at which decomposition starts (TGA)” value in series [2] was “approximately 120 °C”. In addition, in series [3], the “lyotropic phase behaviour in water penetration scans” value was “did not swell” and the Lyotropic phase behaviour entry was “Solid lipid”. Further, in series [3] (in excess water, equilibration @ RT 7 Days, RT, 37, 50° C.), the Phases result is “Lamellar”. Further, the d-spacing result in series [3] (in excess water, equilibration @ RT 7 Days) is given as “(2.86 nm)”. For the same compound, the Phases entry in series [3] (without water, RT, 37, 50, 70, 90° C., SAXS confirmed with XRD) is “Lamellar”. Further, in series [3] (without water), the d-spacing entry was “(2.87 nm)”. The “time over which hydrolysis continued towards full conversion” value in series [1] (CES 0.5 mg/mL, 37° C.) is “more than 7 days”. For the same compound, the “Specific Activity (SA) at time t = 24 h” value in series [1] (setting [7]) was determined as 0.27 µmol/mL. In series [1] (setting [6]), the Specific Activity (SA) at time t = 1 h turned out to be 0.3 µmol/min/mg, the Specific Activity (SA) at time t = 2 h was 0.38 µmol/min/mg and the Specific Activity (SA) at time t = 6 h was 0.33 µmol/min/mg. Further, the “mean (average) particle size” value in series [4] (setting [8]) worked out at 700 nm. For the same compound, the “Average Particle size” value in series [4] was 661 nm.
Regarding `CCCCCCCC/C=C\CCCCCCCCOC(=O)Nc1nc(=O)n(C2OC(C)C(O)C2O)cc1F` (stereo not drawn) [Prodrug 5-FCOle, 5′-deoxy-5-fluoro-N^4-(cis-9-octadecenyl-1-oxycarbonyl)cytidine], the “temperature at which decomposition starts (TGA)” value in series [2] came out at 123 °C. In series [3], the “lyotropic phase behaviour in water penetration scans” value was “traditional lamellar (L[…]) phase at room temperature and 3D cubic (Pn3m) phase at elevated temperatures above 33 °C”; the Lyotropic phase behaviour entry is “Cubosome”. In series [3] (setting [9]), the Lattice parameter is 37 °C Pn3m: 9.10 nm and the Phases entry is on record as “Pn3m”. Further, in series [3] (in excess water, 37° C., SAXS), the Lattice parameter is 37 °C Pn3m: 10.40 nm and the Phases came out at 37 °C Pn3m. Further, in series [3] (setting [10]), the Lattice parameter is 25 °C Lα: 6.01 nm and the Phases result is given as “RT: Lα”. Besides, the Phases entry in series [3] (neat, SAXS, 25, 37° C.) is listed as “Smectic”. The Lattice parameter in series [3] (neat, SAXS, 25° C.) is recorded as 25° C.: 2.99 nm. In addition, in series [3] (neat, SAXS, 37° C.), the Lattice parameter is given as 37° C.: 3.00 nm. In series [3] (neat, XRD, 25° C.), the Lattice parameter is 2.977 nm and the Phases entry was “Smectic”. Moreover, the “average 4T1 tumour volume by day 17” value in series [5] (1.5 mmol for each treatment, daily for 17 days) was “significantly smaller tumour volumes”. Besides, in series [5] (FIG. 19), the “spleens from animals sacrificed at 17 days (images)” value was “normal spleens” and the “tumours from animals sacrificed at 17 days (images)” value is given as “significantly smaller tumours”. The “time for tumours to reach a similar size as the other treatment groups after treatment was stopped” value in series [5] (treatment stopped on day 17) is listed as “a full week”. The “SA relative to 5-FCPal” value in series [1] (CES hydrolysis) is reported as around 10 times. Besides, in series [1] (setting [7]), the “Specific Activity (SA) at time t = 12 h” value stood at 2.37. Moreover, in series [1] (setting [6]), the Specific Activity (SA) at time t = 1 h amounted to 4.97 µmol/min/mg, the Specific Activity (SA) at time t = 2 h stood at 3.7 µmol/min/mg and the Specific Activity (SA) at time t = 6 h is 2.24 µmol/min/mg. In addition, in series [4] (setting [8]), the “mean (average) particle size” value is given as 255 nm and the particle size distribution is given as 150-500 nm. Also, the “Average Particle size” value in series [4] stood at 261 nm.
For “5′-deoxy-5-fluoro-N^4-(octadecyl-1-oxycarbonyl)cytidine [Prodrug 5-FCSte]”, the “phase in excess water” value in series [3] (physiological temperatures) was “lamellar phases”.
“5′-deoxy-5-fluoro-N^4-(cis-9,cis-12-octadecenyl-1-oxycarbonyl)cytidine [Prodrug 5-FCLeo]”: in series [3] (physiological temperatures), the “phase in excess water” value is “fluid isotropic phase”. For the same compound, the “phase at limited hydration” value in series [3] (limited hydration, physiological temperatures) is reported as “inverse phases”.
